This note sets out measurements from ChEMBL document CHEMBL3739353, “Arthroamide, a Cyclic Depsipeptide with Quorum Sensing Inhibitory Activity from Arthrobacter sp” (J Nat Prod, 2015).

The structures appear in SMILES notation. The source made the active and inactive calls. The rule behind the calls is not given here.

Assay [1] has as its target T1, Accessory gene regulator protein A (Staphylococcus aureus) (UniProt P0A0I7).
T1 sequence (whole entry): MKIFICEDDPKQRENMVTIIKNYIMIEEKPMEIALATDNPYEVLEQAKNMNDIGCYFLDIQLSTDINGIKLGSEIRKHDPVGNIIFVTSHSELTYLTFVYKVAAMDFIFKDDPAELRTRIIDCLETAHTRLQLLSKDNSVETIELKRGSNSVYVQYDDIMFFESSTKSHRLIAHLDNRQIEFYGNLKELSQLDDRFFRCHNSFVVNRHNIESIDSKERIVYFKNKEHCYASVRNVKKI
Nature of the assay: Inhibition of agr-mediated quorum sensing in Staphylococcus aureus at 5 to 10 uM after 5 hrs by luminescence analysis.

Assay [2] deals with Escherichia coli. The experiment in a line: Antimicrobial activity against Escherichia coli at 100 ug/ml. Format: functional, organism-based.
Assay [3] deals with Candida albicans. The experiment in a line: Antimicrobial activity against Candida albicans at 100 ug/ml. Format: functional, organism-based.
Assay [4] has as its system Micrococcus luteus. Nature of the assay: Antimicrobial activity against Micrococcus luteus at 100 ug/ml. Format: functional, organism-based.

Regarding `CC[C@H](C)[C@@H]1NC(=O)[C@@H](C)NC(=O)[C@H](C(C)C)NC(=O)C[C@H](/C=C/c2ccccc2)OC(=O)[C@H](C(C)C)NC1=O`, in assay [1], the inhibition – broadly, the percentage by which the read-out fell short of the control – worked out at 10%.

On to `CC(C)[C@@H]1NC(=O)C[C@H](/C=C/c2ccccc2)OC(=O)[C@H](C(C)C)NC(=O)[C@H](C(C)C)NC(=O)[C@@H](C)NC1=O`, for which the inhibition in assay [1] worked out at 10%. Besides, the outcome in assay [2], in assay [3] and in assay [4] was inactive.
